# Experiments:
# RAW 264.7 cells [1] = assay: Lipid profile (prostaglandins, 2-AG, AEA and related lipids) of RAW 264.7 cell extracts, UPLC-MS/MS; type: cell-based, mouse; details: 30 min; for Effect on levels of AEA and related N-acylethanolamines in the cells: LPS + INF-γ-treated, ionomycin (5 μM) treated cells, flurbiprofen and (R)-Flu-AM1 10 μM
# RAW 264.7 cells [2] = assay: [3H]AEA hydrolysis by intact RAW 264.7 cells; type: cell-based, mouse; details: LPS + INF-γ-treated cells; 100 nM [3H]AEA, 60 min; URB597 1 μM, flurbiprofen and (R)-Flu-AM1 10 μM
# [3] = LPS + IFNγ 24 h, URB597 1 μM, flurbiprofen 10 μM, (R)-Flu-AM1 10 μM, median (range), n = 5–6
# [4] = Treatment None (unstimulated), URB597 1 μM, flurbiprofen 10 μM, (R)-Flu-AM1 10 μM, median (range), n = 5–6
compound,measurement,setting,value
"CC(C(=O)O)c1ccc(-c2ccccc2)c(F)c1 (stereo not drawn) [Flurbiprofen, flurbiprofen, reference compound]",Effect on basal and LPS + INF-γ-stimulated PGD2 and PGE2 production,RAW 264.7 cells [1]; 10 μM,blocked
same,Effect on levels of 2-AG in the cell extracts,"RAW 264.7 cells [1]; 10 μM, unstimulated and LPS + INF-γ-treated",not affected
same,Effect on levels of AEA and related N-acylethanolamines in the cells,RAW 264.7 cells [1]; URB597 1 μM,did not affect
same,Effect on hydrolysis of exogenous [3H]AEA by intact cells,RAW 264.7 cells [2],"would not be expected, and this was found to be the case"
"NC(=O)c1cccc(-c2cccc(OC(=O)NC3CCCCC3)c2)c1 [URB597, cyclohexylcarbamic acid 3′-carbamoylbiphenyl-3-yl ester, reference compound]",2-AG level relative to vehicle None median,RAW 264.7 cells [1]; [3],0.90 (0.70–1.11)
same,"9,10,13-TriHOME level relative to vehicle None median",RAW 264.7 cells [1]; [3],1.08 (0.68–1.89)
same,"9,10-DiHOME level relative to vehicle None median",RAW 264.7 cells [1]; [3],0.76 (0.69–1.05)
same,"9,12,13-TriHOME level relative to vehicle None median",RAW 264.7 cells [1]; [3],1.08 (0.66–1.79)
same,9-HODE level relative to vehicle None median,RAW 264.7 cells [1]; [3],1.11 (0.49–1.20)
same,11-HETE level relative to vehicle None median,RAW 264.7 cells [1]; [3],13.0 (4.82–25.7)
same,12(13)-EpOME level relative to vehicle None median,RAW 264.7 cells [1]; [3],1.24 (0.92–1.72)
same,12(S)-HEPE level relative to vehicle None median,RAW 264.7 cells [1]; [3],0.59 (0.28–1.36)
same,"12,13-DiHOME level relative to vehicle None median",RAW 264.7 cells [1]; [3],0.93 (0.85–1.26)
same,12-HETE level relative to vehicle None median,RAW 264.7 cells [1]; [3],0.61 (0.41–0.96)
same,13-HODE level relative to vehicle None median,RAW 264.7 cells [1]; [3],1.16 (0.49–1.43)
same,13-oxo-ODE level relative to vehicle None median,RAW 264.7 cells [1]; [3],1.52 (0.34–2.87)
same,15-HETE level relative to vehicle None median,RAW 264.7 cells [1]; [3],4.58 (0.97–5.29)
same,AEA level relative to vehicle None median,RAW 264.7 cells [1]; [3],1.39 (1.26–1.58)
same,LEA level relative to vehicle None median,RAW 264.7 cells [1]; [3],1.06 (0.79–1.87)
same,OEA level relative to vehicle None median,RAW 264.7 cells [1]; [3],0.97 (0.74–1.96)
same,PEA level relative to vehicle None median,RAW 264.7 cells [1]; [3],0.97 (0.88–1.31)
same,PGD2 level relative to vehicle None median,RAW 264.7 cells [1]; [3],35.1 (19.4–117)
same,PGE2 level relative to vehicle None median,RAW 264.7 cells [1]; [3],10.6 (7.33–33.5)
same,SEA level relative to vehicle None median,RAW 264.7 cells [1]; [3],0.79 (0.67–1.28)
same,Effect on levels of AEA and related N-acylethanolamines in the cells,RAW 264.7 cells [1]; URB597 1 μM,modest effects
same,2-AG level relative to vehicle None median,RAW 264.7 cells [1]; [4],1.10 (0.61–1.47)
same,"9,10,13-TriHOME level relative to vehicle None median",RAW 264.7 cells [1]; [4],1.13 (0.44–2.51)
same,"9,10-DiHOME level relative to vehicle None median",RAW 264.7 cells [1]; [4],1.10 (0.65–1.32)
same,"9,12,13-TriHOME level relative to vehicle None median",RAW 264.7 cells [1]; [4],1.23 (0.51–2.53)
same,9-HODE level relative to vehicle None median,RAW 264.7 cells [1]; [4],1.14 (0.72–2.07)
same,11-HETE level relative to vehicle None median,RAW 264.7 cells [1]; [4],1.12 (0–2.69)
same,12(13)-EpOME level relative to vehicle None median,RAW 264.7 cells [1]; [4],1.07 (0.66–1.66)
same,12(S)-HEPE level relative to vehicle None median,RAW 264.7 cells [1]; [4],0.59 (0–0.85)
same,"12,13-DiHOME level relative to vehicle None median",RAW 264.7 cells [1]; [4],1.15 (1.04–1.39)
same,12-HETE level relative to vehicle None median,RAW 264.7 cells [1]; [4],0.94 (0.33–1.48)
same,13-HODE level relative to vehicle None median,RAW 264.7 cells [1]; [4],1.42 (0.79–1.75)
same,13-oxo-ODE level relative to vehicle None median,RAW 264.7 cells [1]; [4],1.40 (0.76–2.27)
same,15-HETE level relative to vehicle None median,RAW 264.7 cells [1]; [4],1.02 (0.25–2.16)
same,AEA level relative to vehicle None median,RAW 264.7 cells [1]; [4],0.85 (0.45–1.18)
same,LEA level relative to vehicle None median,RAW 264.7 cells [1]; [4],0.79 (0.68–1.15)
same,PEA level relative to vehicle None median,RAW 264.7 cells [1]; [4],1.07 (0.87–1.28)
same,PGD2 level relative to vehicle None median,RAW 264.7 cells [1]; [4],1.37 (0.79–2.48)
same,PGE2 level relative to vehicle None median,RAW 264.7 cells [1]; [4],0.98 (0.49–1.81)
same,SEA level relative to vehicle None median,RAW 264.7 cells [1]; [4],0.80 (0.65–1.27)
same,Effect on hydrolysis of exogenous [3H]AEA by intact cells,RAW 264.7 cells [2],completely blocked

# Source: article PMC4583449, “Characterisation of (R)-2-(2-Fluorobiphenyl-4-yl)-N-(3-Methylpyridin-2-yl)Propanamide as a Dual Fatty Acid Amide Hydrolase: Cyclooxygenase Inhibitor” (PLoS ONE, 2015)
